Results taken from patent US20230330229A1, “METHODS FOR IMAGE-GUIDED RADIOTHERAPY” (UNIVERSITE CLAUDE BERNARD LYON 1, priority 2020, published 2023).

Columns and labels:
[1] = magnetic field of 3 Tesla, literature reference; cited from earlier work
brain metastases = assay: MRI signal enhancement in brain metastases (Nano-Rad phase I-b trial, 3 Tesla, 3D T1-weighted); assay type: in vivo, human; details: D0, 15 min after injection, 0.1 mmol/kg i.v., metastases >1 cm
Text: This study is part of a prospective dose escalation phase I-b clinical trial to evaluate the tolerance of the intravenous administration of radiosensitizing AGuIX nanoparticles in combination with whole brain radiotherapy for the treatment of brain metastases. The Nano-Rad trial (Radiosensitization of Multiple Brain Metastases Using AGuIX Gadolinium Based Nanoparticles) was registered as NCT02820454. Here, we report the findings of the MRI protocol applied to the 15 recruited patients. […]
MRI analyses were performed using an in-house computer program called MP3 (https://github.com/nifm-gin/MP3) developed by the GIN Laboratory (Grenoble, France) and running under Matlab® software. Image analyses include counting and measurements of metastases, quantification of contrast enhancement, relaxation times and concentration of nanoparticles. […] The MRI enhancement, expressed in percentage, was defined as the ratio of the MRI signal amplitude post contrast agent administration over the MRI signal amplitude pre contrast agent administration; the MRI signal amplitude being measured in the 3D T1-weighted image dataset. […]

[2] = Detection of solutions in Eppendorf by MRIdian MR-linac at 0.35 T; details: spin echo, solutions in PPI water
Procedure: ViewRay Linac MRI displaying magnetic field of 0.35 T (MRIdian MR-linac, ViewRay Inc., Oakwood, USA) (S. Klüter, Clinical and Translational Radiation Oncology, 2019), samples with different concentrations in gadolinium were tested and compared to Multihance (Bracco) using the Torso coil (two surface flexible 6-channel coils array).
The ViewRay MRIdian system is clinically used for external radiotherapy purpose, thus it is a very appropriate device dedicated to the use of the AGuIX. A 2D coronal spin echo sequence was used: TR=400 ms, TE=20 ms, Flip Angle=90°, Bandwidth=57. Hz/Px, Matrix=512×512, Slice Thickness=3 mm, Field Of View=350×350×263 mm, Number of Averages=5. The total acquisition time was 12:30 minutes.
Solutions of multihance and AGuIX were prepared by dilution in PPI water from stock solutions of 0.5 mol·L^−1 and 100 g·L^−1 respectively 1 hour before imaging and placed in Eppendorf.

Which results are given for `CNC[C@H](O)[C@@H](O)[C@H](O)[C@H](O)CO.O=C([O-])CN1CCN(CC(=O)[O-])CCN(CC(=O)O)CCN(CC(=O)[O-])CC1.[Gd+3]` [Dotarem, gadoterate meglumine]?
r1 per Gd^3+ ion [1]: 3.5 mM⁻¹ s⁻¹; MRI enhancement averaged over all measurable metastases (brain metastases): 182.9±116.2%

With `O=C([O-])CN(CCN(CC(=O)[O-])CC(=O)[O-])CCN(CC(=O)[O-])C(COCc1ccccc1)C(=O)[O-].[Gd+3].[H+].[H+]` (stereo not drawn) [Multihance, gadobenic acid] as the compound, how does the “Detection sensitivity (lowest detected [Gd^3+])” value [2] read?
Its value is 25 µM.
